In patent US6492365B1, “Microsomal triglyceride transfer protein” (Bristol-Myers Squibb Company, priority 1992, dated 2002):
Where a name gives a salt, the structure may show the parent alone.

O=C1c2ccccc2CN1C1CCN(CC=C(c2ccccc2)c2ccccc2)CC1 (as salt: hydrochloride) [Example 11, 2-[1-(3,3-Diphenyl-2-propenyl)-4-piperidinyl]-2,3-dihydro-1H-isoindol-1-one, monohydrochloride]
melting point: 231 to 235 °C

O=C1c2ccccc2CN1C1CCN(Cc2ccccc2)CC1 (as salt: hydrochloride) [Example 13, 2,3-Dihydro-2-[1-(phenylmethyl)-4-piperidinyl]-1H-isoindol-1-one, monohydrochloride]
melting point: 271 to 274 °C

O=C1c2ccccc2CN1C1CCN(CCCc2ccccc2)CC1 (as salt: hydrochloride) [Example 14, 2,3-Dihydro-2-[1-(3-phenylpropyl)-4-piperidinyl]-1H-isoindol-1-one, monohydrochloride]
melting point: 229 to 231 °C

CCCCC(CCCC)CCN1CCC(N2Cc3ccccc3C2=O)CC1 (as salt: hydrochloride) [Example 17, 2-[1-(3-Butylheptyl)-4-piperidinyl]-2,3-dihydro-1H-isoindol-1-one, monohydrochloride]
melting point: 185 to 187 °C

O=C1c2ccccc2CN1C1CCN(C/C=C/c2ccccc2Oc2ccccc2)CC1 (as salt: hydrochloride) [Example 20, (E)-2,3-Dihydro-2-[1-[3-(2-phenoxyphenyl)-2-propenyl]-4-piperidinyl]-1H-isoindol-1-one, monohydrochloride]
melting point: 215 to 218 °C

COc1ccccc1CCCN1CCC(N2Cc3ccccc3C2=O)CC1 (as salt: hydrochloride) [Example 21, 2,3-Dihydro-2-[1-[3-(2-methoxyphenyl)propyl]-4-piperidinyl]-1H-isoindol-1-one, monohydrochloride]
melting point: 191 to 195 °C

O=C1CC(CN2CCN(c3ccccc3)CC2)Cc2ccccc21 (centres unmarked) (as salt: hydrochloride) [Example 23, 3,4-Dihydro-3-[(4-phenyl-1-piperazinyl)methyl]-1-(2H)-naphthalenone, monohydrochloride]
melting point: 243 to 246 °C

COc1ccccc1N1CCN(C(=O)C2CC(=O)c3ccccc3C2)CC1 (centres unmarked) (as salt: hydrochloride) [Example 25, 3,4-Dihydro-3-[[4-(2-methoxyphenyl)-1-piperazinyl]-carbonyl]-1(2H)-naphthalenone, monohydrochloride]
melting point: 197 to 199 °C

O=C1CC(CN2CCN(C(c3ccccc3)c3ccc(Cl)cc3)CC2)Cc2cc(F)ccc21 (centres unmarked) (as salt: hydrochloride) [Example 27, 3-[[4-[(4-Chlorophenyl)phenylmethyl]-1-piperazinyl]methyl]-6-fluoro-3,4-dihydro-1(2H)-naphthalenone, dihydrochloride]
melting point: 211 to 212 °C

COc1ccc(C(C(=O)NC2CCN(CCc3ccccc3)CC2)c2ccc(OC)cc2)cc1 (as salt: hydrochloride) [Example 29, 4-Methoxy-α-(4methoxyphenyl)-N-[1-(2-phenylethyl)-4-piperidinyl]benzeneacetamide, monohydrochloride]
melting point: 180 to 182 °C

O=C(NC1CCN(CCc2ccccc2)CC1)C(c1ccccc1)c1ccccc1 (as salt: hydrochloride) [Example 30, α-Phenyl-N-[1-(phenylethyl)-4-piperidinyl]-benzeneacetamide, monohydrochloride]
melting point: 263 to 264 °C

O=C1c2ccc(Cl)cc2CN1C1CCN(Cc2ccccc2)CC1 (as salt: hydrochloride) [Example 31, 5-Chloro-2,3-dihydro-2-[1-(phenylmethyl)-4-piperidinyl]-1H-isoindol-1-one, monohydrochloride]
melting point: 269 to 271 °C

CCCCC(=CCN1CCC(N2Cc3ccccc3C2=O)CC1)CCCC (as salt: hydrochloride) [Example 32, 2-[1-(3-Butyl-2-heptenyl)-4-piperidinyl]-2,3-dihydro-1H-isoindol-1-one, monohydrochloride]
melting point: 147 to 152 °C

O=C1c2ccccc2CN1C1CCN(C/C=C/CC(c2ccccc2)c2ccccc2)CC1 (as salt: hydrochloride) [Example 33, 2-[1-(5,5-Diphenyl-2-pentenyl)-4-piperidinyl]-2,3-dihydro-1H-isoindol-1-one, monohydrochloride]
melting point: 127 to 134 °C

O=C1c2ccccc2CN1C1CCN(CCCc2ccccc2Oc2ccccc2)CC1 (as salt: hydrochloride) [Example 34, 2,3-Dihydro-2-[1-[3-(2-phenoxyphenyl)propyl]-4-piperidinyl]-1H-isoindol-1-one, monohydrochloride]
melting point: 199 to 202 °C

O=C1c2ccccc2CN1C1CCN(C(c2ccccc2)c2ccccc2)CC1 (as salt: hydrochloride) [Example 35, 2,3-Dihydro-2-[1-(diphenylmethyl)-4-piperidinyl]-1H-isoindol-1-one, monohydrochloride]
melting point: 165 to 169 °C

O=C1c2ccccc2CN1C1CCN(C/C=C\CC(c2ccccc2)c2ccccc2)CC1 (as salt: hydrochloride) [Example 36, (Z)-2,3-Dihydro-2-[1-(5,5-diphenyl-2-pentenyl)-4-piperidinyl]-1H-isoindol-1-one, monohydrochloride]
melting point: 174 to 177 °C

COc1ccccc1C(=O)NC1CCN(CCC(c2ccccc2)c2ccccc2)CC1 (as salt: hydrochloride) [Example 38, N-[1-(3,3-Diphenylpropyl)-4-piperidinyl]-2-methoxybenzamide, monohydrochloride]
melting point: 170 to 172 °C

O=C(NC1CCN(CCC(c2ccccc2)c2ccccc2)CC1)c1ccccn1 (as salt: hydrochloride) [Example 40, N-[1-(3,3-Diphenylpropyl)-4-piperidinyl]-2-pyridineamide, monohydrochloride]
melting point: 109 to 116 °C

CC(=O)N(Cc1ccccc1)C1CCN(CCC(c2ccccc2)c2ccccc2)CC1 (as salt: hydrochloride) [Example 41, N-[1-(3,3-Diphenylpropyl)-4-piperidinyl]-N-(phenylmethyl)acetamide, monohydrochloride]
melting point: 102 to 105 °C

O=C(c1ccccc1)N(Cc1ccccc1)C1CCN(CCC(c2ccccc2)c2ccccc2)CC1 (as salt: hydrochloride) [Example 42, N-[1-(3,3-Diphenylpropyl)-4-piperidinyl]-N-(phenylmethyl)benzamide, monohydrochloride]
melting point: 115 to 120 °C

COc1ccccc1N1CCN(CC2CC(=O)c3ccc(F)cc3C2)CC1 (centres unmarked) [Example 22, 6-Fluoro-3,4-dihydro-3-[[4-(2-methoxyphenyl)-1-piperazinyl]-methyl]-1(2H)-naphthalenone]
melting point: 111 to 113 °C

O=C(Cc1c[nH]c2ccccc12)NC1CCN(Cc2ccccc2)CC1 [Example 28, N-[1-(Phenylmethyl)-4-piperidinyl]-1H-indole-3-acetamide]
melting point: 153 to 154 °C
